Experiments:
E. coli K12 PBP2 = target: T1, E. coli K12 PBP2 (Escherichia coli, UniProt P0AD65); assay: Bocillin-FL fluorescence polarization competition binding assay, E. coli PBP2
T1 construct: made in house
Text: (§1) Example I: Experimental Method for Penicillin-Binding Protein Binding Assays with Bocillin-FL Via Fluorescence Polarization
(§2) To determine the ability of boronic acid-based test PBP inhibitors to bind Penicillin Binding Proteins (PBPs), Bocillin-FL (fluorescently-labeled penicillin V; ThermoFisher Scientific) was used in a fluorescence polarization (FP) competition binding assay to assess inhibitor binding to PBP2, PBP3 or PBP4 from Escherichia coli (K12), PBP3 from Pseudomonas aeruginosa (PA01), PBP1a, PBP2 and PBP3 from Acinetobacter baumannii (ATCC 19606), and PBP2 from Neiserria gonorrheae (FA19). PBPs were cloned and purified as described previously (E. coli PBPs, King, D. T, et al., ACS Infectious Diseases 2015, 1, 175-184; P. aeruginosa PBP3, Han et. al., PNAS 2010, 107 (51), 22002-22007; A. baumannii PBPs, Penwell et. al., Antimicrob. Agents Chemother. 2015, 59 (3), 1680-1689; N. gonorrhoeae PBP2, Singh et. al., J Biol. Chem. 2019, 294 (38), 14020-14032). To establish assay conditions for competition binding, enzyme titration/saturation binding experiments were initially performed. Bocillin-FL was prepared at 0.2 μM in a buffer comprised of 50 mM Hepes (pH 8.0), 300 mM NaCl and 5% (v/v) glycerol for reactions with E. coli, P. aeruginosa and N. gonorrhoeae PBPs, and 25 mM Tris (pH 8.0), 200 mM NaCl and 10% (v/v) glycerol and 0.005% (v/v) Tween 20 for reactions with A. baumannii PBPs. Saturation binding was performed by mixing 40 μl of PBP solutions ranging in concentrations from 0-24 μM with 40 μl of the 0.2 μM Bocillin-FL solution, in individual wells of a black 384-well microplate. FP was measured immediately upon mixing (Excitation, 490 nm; Emission, 520 nm; g-factor, 0.96), using a Cytation3 (BioTek) microplate reader and measured continuously for up to 120 minutes. […] Bocillin-FL was added and the FP immediately measured for up to 60 minutes (90 minutes for E. coli PBP2). […]

E. coli K12 PBP1b = target: T2, E. coli K12 PBP1b (Escherichia coli, UniProt P02919); assay: Radioligand competition binding assay with 14C-labeled boronic acid probe, E. coli PBP1b; settings: competition binding assay using 14C-labeled boronic acid probe; read-out: E. coli K12 PBP1b EC50
T2 construct: made in house
Text: Example II: Experimental Method to Assess Binding to Penicillin-Binding Proteins: Radioligand Competition Binding Assay
To determine the ability of boronic acid-based test PBP inhibitors to bind Penicillin Binding Proteins (PBPs), a radio-labelled boronic acid PBP inhibitor:
was used in competition binding assays to determine boronic acid PBP inhibitor binding to PBP1a or PBP1b from Escherichia coli. PBP1a and PBP1b were purified as described previously (Bertsche, U.; et al., J Biol. Chem. 2005, 280 (45), 38096-38101; Born, P.; et al., J Biol. Chem. 2006. 281 (37), 26985-26993). To establish assay conditions for competition binding, an enzyme titration/saturation binding experiment was performed. Saturation binding was performed in a buffer comprised of 20 mM Tris (pH 7.5), 500 mM NaCl and 0.1% (v/v) TritonX-100, with PBP1a/PBP1b at a final concentration of 0.1 μM and Compound A at final concentrations ranging from 0-100 μM. Mixtures were incubated for 60 minutes, then applied to Zeba Spin Desalting columns or plates (ThermoFisher Scientific) and centrifuged at 1000-1500×g for 2 minutes. The flow through, containing PBP bound with Compound A, was recovered and 100 μL mixed with 5 mL of UltimaGold liquid scintillation cocktail (Perkin Elmer), and the radioactivity counted using a Beckman Coulter LS 6500 Multipurpose scintillation counter. PBP binding of Compound A approached saturation at 20 μM of ^14C-labeled probe. The competition binding assay was validated using the beta-lactam ampicillin, with Compound A at a final concentration of 20 μM, PBP1a/PBP1b at a final concentration of 0.1 μM. PBP1a/PBP1b was incubated with ampicillin in a 96-well microplate for 60 minutes, then Compound A was added and the mixtures incubated for an additional 60 minutes. The mixtures were then applied to Zeba Spin desalting plates and centrifuged at 1000×g for 2 minutes. The flow through was recovered and 100 μl mixed with 5 ml of UltimaGold liquid scintillation cocktail and the radioactivity counted. […] Binding assays with boronic acid PBP inhibitors were performed in an identical fashion. […]

E. coli K12 PBP4 = target: T3, E. coli K12 PBP4 (Escherichia coli, UniProt P24228); assay: Bocillin-FL fluorescence polarization competition binding assay, E. coli PBP4; settings: fluorescence polarization competition binding assay using Bocillin-FL; read-out: E. coli K12 PBP4 Potency (EC50)
T3 construct: made in house
Text: as §1, §2

T2 sequence (P02919 whole entry): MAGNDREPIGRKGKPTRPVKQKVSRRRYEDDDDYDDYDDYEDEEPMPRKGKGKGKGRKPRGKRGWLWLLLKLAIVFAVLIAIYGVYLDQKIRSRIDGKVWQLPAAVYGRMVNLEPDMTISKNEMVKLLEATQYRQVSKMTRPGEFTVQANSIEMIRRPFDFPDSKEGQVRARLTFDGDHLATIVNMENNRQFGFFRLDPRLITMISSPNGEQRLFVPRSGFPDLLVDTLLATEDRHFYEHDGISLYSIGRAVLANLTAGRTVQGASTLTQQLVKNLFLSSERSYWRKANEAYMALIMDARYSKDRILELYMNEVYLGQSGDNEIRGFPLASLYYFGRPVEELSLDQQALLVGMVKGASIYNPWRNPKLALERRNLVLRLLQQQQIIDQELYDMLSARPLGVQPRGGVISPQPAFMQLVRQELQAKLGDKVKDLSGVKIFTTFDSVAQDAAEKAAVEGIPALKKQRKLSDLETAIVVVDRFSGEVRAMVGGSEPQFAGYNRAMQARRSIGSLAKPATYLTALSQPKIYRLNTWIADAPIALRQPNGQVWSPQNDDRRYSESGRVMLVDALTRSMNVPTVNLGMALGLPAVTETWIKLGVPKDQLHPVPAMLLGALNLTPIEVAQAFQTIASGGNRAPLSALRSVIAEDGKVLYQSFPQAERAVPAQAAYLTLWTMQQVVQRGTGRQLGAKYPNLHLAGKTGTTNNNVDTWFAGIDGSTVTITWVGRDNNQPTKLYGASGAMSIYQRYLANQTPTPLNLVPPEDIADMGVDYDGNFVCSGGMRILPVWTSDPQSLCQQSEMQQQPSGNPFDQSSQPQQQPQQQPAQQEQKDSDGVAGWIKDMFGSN
T3 sequence (P24228 21-477): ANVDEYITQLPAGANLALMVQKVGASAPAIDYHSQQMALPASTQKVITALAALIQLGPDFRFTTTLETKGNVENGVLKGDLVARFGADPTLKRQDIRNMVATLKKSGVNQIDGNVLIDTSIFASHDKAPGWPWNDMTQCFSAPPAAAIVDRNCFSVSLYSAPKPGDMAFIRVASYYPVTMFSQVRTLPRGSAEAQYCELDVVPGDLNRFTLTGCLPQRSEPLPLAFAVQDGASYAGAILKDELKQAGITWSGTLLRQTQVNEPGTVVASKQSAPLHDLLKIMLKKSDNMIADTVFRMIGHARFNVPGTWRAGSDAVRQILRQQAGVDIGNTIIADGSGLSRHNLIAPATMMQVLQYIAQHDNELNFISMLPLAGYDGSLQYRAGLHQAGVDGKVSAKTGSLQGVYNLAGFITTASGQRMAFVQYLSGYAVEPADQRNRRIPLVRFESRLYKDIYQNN
T1 sequence (P0AD65 whole entry): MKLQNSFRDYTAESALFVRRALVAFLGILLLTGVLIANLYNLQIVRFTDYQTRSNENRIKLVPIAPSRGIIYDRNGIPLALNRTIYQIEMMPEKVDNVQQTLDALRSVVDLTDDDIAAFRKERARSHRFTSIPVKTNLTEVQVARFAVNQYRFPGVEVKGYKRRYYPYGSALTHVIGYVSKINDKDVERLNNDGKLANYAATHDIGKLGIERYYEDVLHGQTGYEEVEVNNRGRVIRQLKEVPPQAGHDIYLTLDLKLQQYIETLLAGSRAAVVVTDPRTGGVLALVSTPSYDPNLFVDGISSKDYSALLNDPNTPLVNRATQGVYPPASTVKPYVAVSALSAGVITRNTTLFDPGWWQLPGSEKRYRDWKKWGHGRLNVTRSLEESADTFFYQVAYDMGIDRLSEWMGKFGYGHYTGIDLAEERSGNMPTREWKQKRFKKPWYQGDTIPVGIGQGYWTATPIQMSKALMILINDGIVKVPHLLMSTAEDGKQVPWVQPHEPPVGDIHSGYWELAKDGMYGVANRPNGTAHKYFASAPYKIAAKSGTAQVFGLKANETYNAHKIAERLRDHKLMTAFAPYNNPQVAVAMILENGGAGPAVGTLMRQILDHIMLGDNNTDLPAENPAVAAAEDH

CCN1CCN(C(=O)NC(C(=O)N[C@H]2Cc3ccc(SCc4ccc(O)cc4)c(C(=O)O)c3OB2O)c2csc(N)n2)C(=O)C1=O (stereo partly drawn) [Example 55, (3R)-3-(2-(2-aminothiazol-4-yl)-2-(4-ethyl-2,3-dioxopiperazine-1-carboxamido)acetamido)-2-hydroxy-7-((4-hydroxybenzyl)thio)-3,4-dihydro-2H-benzo[e][1,2]oxaborinine-8-carboxylic acid]
EC50 (E. coli K12 PBP2): 30 to 500 µM | EC50 (E. coli K12 PBP1b): > 100 µM | EC50 (E. coli K12 PBP4): 30 to 500 µM

CCN1CCN(C(=O)NC(C(=O)N[C@H]2Cc3ccc(S)c(C(=O)O)c3OB2O)c2csc(N)n2)C(=O)C1=O (stereo partly drawn) [Example 54, (3R)-3-(2-(2-aminothiazol-4-yl)-2-(4-ethyl-2,3-dioxopiperazine-1-carboxamido)acetamido)-2-hydroxy-7-mercapto-3,4-dihydro-2H-benzo[e][1,2]oxaborinine-8-carboxylic acid]
EC50 (E. coli K12 PBP2): 30 to 500 µM | EC50 (E. coli K12 PBP1b): 10 to 100 µM | EC50 (E. coli K12 PBP4): 30 to 500 µM
